Measurements from patent US20030220254A1, “Composition and method for preparation of an oral dual controlled release formulation of a protein and inhibitor” (TEXAS TECH UNIVERSITY SYSTEM, priority 2002, published 2003).

Key:
trypsin = target: T1, trypsin (Bos taurus, UniProt P00760); test: Stability of sCT in the presence of trypsin and protease inhibitors; type: biochemical; set-up: half-life: dose or concentration left out as unconfirmed
T1 construct: gene PRSS1
T1 sequence (P00760 24-246): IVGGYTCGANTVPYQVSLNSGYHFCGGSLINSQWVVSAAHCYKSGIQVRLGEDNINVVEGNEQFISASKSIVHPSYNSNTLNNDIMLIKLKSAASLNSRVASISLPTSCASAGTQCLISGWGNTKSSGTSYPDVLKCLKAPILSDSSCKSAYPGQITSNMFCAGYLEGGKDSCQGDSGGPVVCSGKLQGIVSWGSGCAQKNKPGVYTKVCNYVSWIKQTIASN
Description: (§1) sCT solutions (50 μM) were incubated at 37° C. in 50 mM Tris buffer containing 0.1 mM calcium chloride (pH 8.0). Degradation profiles generated in the presence of 0.5 μM trypsin and 0.1 μM α-chymotrypsin served as controls. The concentrations were selected on the basis of a reported study (Schilling R. J. and Mitra A. K. 1991). DkOVM and TkOVM were evaluated at different enzyme-to-inhibitor ratios to evaluate their inhibition of sCT degradation. CkOVM and aprotinin were used at 1:1 enzyme-to-inhibitor ratio in order to compare the efficacy of various protease inhibitors used. sCT and enzyme solutions were incubated for 15 min at 37° C. before starting the experiments. Samples were taken after 0, 5, 15, 30 and 60 min and immediately diluted with cold 1% trifluoroacetic acid (TFA) to reduce the pH to 2.5. The samples were analysed at 4° C. by HPLC given below. Plots of sCT remaining against time were generated. 160 values (amount of sCT (%) remaining after 60 min) were used to compare the efficacy of the ovomucoids. Similar studies were performed with aprotinin. The study was also conducted by incubating 50 μM sCT solutions with 0.5 μM trypsin and 0.1 μM α-chymotrypsin added together and the efficacy of TkOVM was evaluated at various ratios.
(§2) sCT was analyzed by means of our validated HPLC method (Shah R B, et al., 2003). Briefly, a computer controlled Varian Chromatography workstation consisting of the following components was used: Two Dynamax SD-200 pumps, an AI-200A autosampler fitted with a 100 μl injection loop, a Dynamax UV-1 detector and Star 5.3 chromatography software. Room temperature was maintained for the column and chromatographic separations were carried out on a C-18 Vydac 218MS54 column (5 μm, 4.6×250 mm) with a pore size of 300 Å. 50 μl of samples were injected into the column which were analyzed by the reversed phase HPLC method. The mobile phase consisted of 0.05% v/v TFA-Water (A) and 0.05% v/v TFA-Acetonitrile (B). The gradient conditions were 20-35% B for 10 min, 35-37% B from 10th to 20th min and 37-20% B from 20th to 25th min at a flow rate of 1 ml/min. […] Concentrations of sCT were quantified from integrated peak areas and calculated by interpolation from an according standard curve.

α-chymotrypsin = α-chymotrypsin (Bos taurus, UniProt P00766); test: Stability of sCT in the presence of α-chymotrypsin and protease inhibitors; type: biochemical; set-up: half-life: dose or concentration left out as unconfirmed; details: no inhibitor
Description: as §1, §2

[1] = test system: trypsin and α-chymotrypsin; test: Stability of sCT with trypsin and α-chymotrypsin added together, with TkOVM; type: biochemical; details: pH 8, no inhibitor, read-out: Half-life (min) of hydrolysis of sCT
Description: as §1, with “Plots of sCT remaining against time were generated. 160 values (amount of sCT (%) remaining after 60 min) were used to compare the efficacy of the ovomucoids. Similar studies were performed with aprotinin.” left out
sCT was analyzed by means of our validated HPLC method (Shah R B, et al., 2003). […] 50 μl of samples were injected into the column which were analyzed by the reversed phase HPLC method. […] Concentrations of sCT were quantified from integrated peak areas and calculated by interpolation from an according standard curve.

Caco-2 cell homogenate = test: Stability of sCT in Caco-2 cell homogenate; type: in vitro ADME, Human; details: Caco-2 homogenate, sCT 50 μM
Description: Human colon adenocarcinoma (Caco-2) cells were cultured, in an atmosphere of 5% CO2 at 37° C. in T-75 tissue culture flasks using DMEM supplemented with 10% FBS, 100 U/ml penicillin, 100 μg/ml streptomycin, 1.25 ml human Transferrin. The medium was changed every other day until the flasks reached 90% confluence (3-4 days). Caco-2 cells of less than 20 passages were used. Caco-2 homogenate was prepared according to the method of Augustijns et al. with slight modification. Briefly, the Caco-2 monolayer was washed three times with ice-cold PBS (pH 7.4). The cells were scraped off with a tissue culture scraper on ice and homogenized in 1 ml ice-cold PBS using a mechanical homogenizer. The mixture was centrifuged at 12,000 rpm for 10 min at 4° C. The resultant supernatant was used as Caco-2 homogenate. The protein content was determined using BCA assay. Tryspin and chymotrypsin assay was done for the homogenate as described below.
(§3) The degradation of sCT was studied by incubating the sCT solution to a final concentration of 50 μM with 900 μl Caco-2 cell and goat intestinal homogenates. The samples were withdrawn at 0 and 60 min and were diluted immediately with cold TFA 1%. The samples containing intestinal homogenate were centrifuged at 5000 g for 10 min to remove precipitated proteins. The supernatant was injected into HPLC to determine the sCT content.

in vitro = in vitro ADME; details: goat, real gastrointestinal fluid or homogenate, pH 7.4
Description: Goat intestinal homogenate was prepared using a reported method for preparation of intestinal homogenate with minor modifications (Yamamoto et al., 1990). Briefly, fresh goat intestinal tissues, obtained from a local slaughter house, were washed with phosphate buffered saline (PBS) pH 7.4 at 4° C. and stored at −80° C. Immediately before each experiment, specimens were thawed at room temperature and then were washed again with PBS at 4° C. 25 g of tissue was cut from the small intestinal region and was homogenized in 10 ml PBS at 4° C. by use of a mechanical homogenizer for 5 min. The homogenate was centrifuged at 5000 g in a refrigerated (4° C.) centrifuge for 10 min to remove cellular and nuclear debris. The resulting supernatant was assayed for protein content by BCA assay with bovine serum albumin as the standard. The supernatant was also assayed for trypsin and chymotrypsin content.
as §3

Structure (SMILES): CC(C)C[C@H](NC(=O)[C@H](CCCCN)NC(=O)CNC(=O)[C@H](CC(C)C)NC(=O)[C@@H](NC(=O)[C@@H]1CSSC[C@H](N)C(=O)N[C@@H](CO)C(=O)N[C@@H](CC(N)=O)C(=O)N[C@@H](CC(C)C)C(=O)N[C@@H](CO)C(=O)N[C@@H]([C@@H](C)O)C(=O)N1)C(C)C)C(=O)N[C@@H](CO)C(=O)N[C@@H](CCC(N)=O)C(=O)N[C@@H](CCC(=O)O)C(=O)N[C@@H](CC(C)C)C(=O)N[C@@H](Cc1c[nH]cn1)C(=O)N[C@@H](CCCCN)C(=O)N[C@@H](CC(C)C)C(=O)N[C@@H](CCC(N)=O)C(=O)N[C@H](C(=O)N[C@@H](Cc1ccc(O)cc1)C(=O)N1CCC[C@H]1C(=O)N[C@@H](CCCNC(=N)N)C(=O)N[C@H](C(=O)N[C@@H](CC(N)=O)C(=O)N[C@H](C(=O)NCC(=O)N[C@@H](CO)C(=O)NCC(=O)N[C@H](C(=O)N1CCC[C@H]1C(N)=O)[C@@H](C)O)[C@@H](C)O)[C@@H](C)O)[C@@H](C)O [sCT, salmon calcitonin]
- Amount (%) of sCT remaining at 60 min (I60) (trypsin; control, sCT 50 μM without enzyme): 103.76 ± 3.10%
- half-life (trypsin; pH 8, trypsin, no inhibitor, read-out: Half-life (min) of hydrolysis of sCT): 1.51 min
- Amount (%) of sCT remaining at 60 min (I60) (trypsin; trypsin 0.5 μM, no inhibitor): 0.00 ± 0.00%
- Amount (%) of sCT remaining at 60 min (I60) (α-chymotrypsin; chymotrypsin 0.1 μM): 16.18 ± 0.48%
- half-life (α-chymotrypsin; pH 8, α-chymotrypsin, read-out: Half-life (min) of hydrolysis of sCT): 22.4 min
- half-life at 50 μM [1]: 0.77 min
- Amount (%) of sCT remaining at 60 min (I60) (Caco-2 cell homogenate): 81.46 ± 10.89%
- remaining at 1 h, 50 μM (in vitro): 91.7 ± 17.6%
